From PMC10266688 (PLOS ONE, 2023)

What was measured:
[1] = system: PEA2, PACS and SKOV3 cells; test: Checkerboard combination cytotoxicity (MTT, Synergy finder); format: cell-based; settings: 72 h
Procedure: Results are reported as mean ± standard deviation (s.d.). Statistical significance of differences was assessed by two-tailed Student’s t using Prism (V.5 Graphpad, San Diego, CA) with the level of significance set at p≤0.05. Survival was summarized using Kaplan–Meier methods and compared using log-rank tests. Combination indices (CI) were calculated using Synergy finder.
Cell viability was measured using MTT assay and data was processed using the Synergy Finder web application. B) Same as in A, PACS cell line derived from spontaneous mouse ovarian tumor [32], was used. (TIF) Click here for additional data file.
Cell viability was measured using MTT assay and data was processed using the Synergy Finder web application. (TIF) Click here for additional data file.

RPN13 = biological target: T1, RPN13 (Homo sapiens, UniProt Q16186); test: Cellular Thermal Shift Assay (CETSA), SKOV3 cells; format: binding; settings: SKOV3, 10 μM, 30 min, vs DMSO
T1 construct: endogenous in cells; host or cells: SKOV3 cells
Procedure: Cells were incubated in a thermal cycler (Biorad IQ5 Cycler) over a gradient of temperatures for 4 min, followed by incubation at 25°C for 3 min, then snap-frozen in liquid nitrogen and subjected to three freeze–thaw cycles. Samples were briefly vortexed and centrifuged at 16,000 x g for 20 min at 4°C. Cleared cell lysates were resolved in SDS–PAGE followed by immunoblotting for RPN13, GAPDH, RPN2 and USP14.
Cellular Thermal Shift Assay (CETSA) assesses thermal stabilization of proteins upon ligand binding and is used extensively to detect drug interactions by implementing a thermal shift in the cellular context. The assay involves drug treatment of cells, heating to denature and precipitate proteins in a thermocycler with a specified gradient of temperatures, cell lysis by freeze/thaw cycles, and the separation of cell debris and aggregates from the soluble protein fraction by centrifugation. Whereas unbound proteins denature and precipitate at elevated temperatures, ligand-bound proteins remain in solution. The proportion of individual proteins remaining in solution can be detected by quantitative Western blotting. […]. There was no impact on other control proteins tested, including a house keeping protein (GAPDH) and proteasome subunits (RPN2 and USP14). […]
Resuspended cells were aliquoted into PCR strips. […]

Neat solution stability = format: physicochemical; settings: 10 μM, 37°C
Procedure: (§1) An incubation mixture with, and without NADPH-generating system, as well as a neat solution prepared without microsomes and NADPH-generating system was used. […] All reactions were initiated with the addition of Up284. Incubations were performed in glass tubes maintained at 37°C in a shaker bath. At 0, 30, and 60 minutes, 10 μL samples were withdrawn from the reaction mixture, and 0.5 mL of acetonitrile containing internal standard was added to each. Samples were vortex-mixed and subjected to centrifugation for 5 min at 1430 x g. A 10 μL aliquot of the supernatant was injected onto the LC-MS/MS instrument for qualitative analysis using a temperature-controlled autosampling device operating at 5°C.

[2] = Microsomal stability, mouse liver microsomes; format: in vitro ADME; settings: for % Drug Remaining NADPH Neg, Mouse Liver Microsomes / % Drug Remaining NADPH Pos, Mouse Liver Microsomes: 10 μM
Procedure: as §1

CHOP10 mRNA = test: Q-PCR of CHOP10 mRNA; settings: 1 μM, 4 h
[3] = mouse, in vivo, iv, 20 mg/kg
Procedure: The mice were divided into three groups consisting of three female CD1 mice each. […] Terminal blood sampling for hematological and serum biochemical analysis was performed on Day 7 of the study, 24 h after the last dosing. […] Terminal bleeding and euthanasia were performed on Day 7, 24 h after the third dosing. Blood collection was carried out after 6 h fasting. Animals were injected IP with 2,2,2-tribromoethanol (200 mg/kg) and the blood was collected from orbital sinuses into dry microtainers without anticoagulant. For the serum collection, the tubes with collected blood were held at RT for 15–60 min after blood drawing to form a clot, and then were centrifuged at 9000 rpm for 20 min at 4°C. The collected serum was frozen within 60–80 min after blood drawing and was stored at -20°C for further clinical chemistry analysis. For the hematological study, 25 μL of fresh blood was quickly mixed with an equal volume of 0.36% solution of K2EDTA in saline. Assessment of the hematological parameters was performed using the BIO TE hematology analyzer MCL-3124 and consumable reagents (Cormay) within 2 h of the blood draw. For clinical chemistry analyses, ASAT, ALAT, ALP, LDH, GGT, CK, Creatinine, Urea and TP were determined in the serum using commercial kits according to the manufacturer’s instructions.

[4] = system: ID8-luc murine ovarian tumor; test: ID8-Defb29/VegfA-luc syngeneic model, C57BL6 mice; format: in vivo, mouse
Procedure: Female C57BL6 mice were inoculated IP with 3x10^5 ID8-Defb29/VegfA-luc cells in 100 μL PBS. At day 3, mice were imaged for basal level luminescence activity with a Xenogen IVIS 200 after IP injection with luciferin (0.3 mg in 100 μL water). Mice were randomized into groups and treated IP with compounds or vehicle (25% (w/v) β-Hydroxypropylcyclodextrin in water), and imaged again on days indicated.
A-C) Female nude mice were inoculated IP with ES2-luc cells, a human ovarian cancer line expressing luciferase. […] The IP tumor tissue and electroporated normal muscle tissue, being spatially distinct, were identified with separate regions of interest (ROI) after simultaneous imaging with IVIS.
Female C57BL6 mice (4–6 weeks) were challenged IP with ID8-luc tumor.

TOV21G and ES2 cells = test: Annexin V apoptosis assay; settings: 12 h
HeLa cells = test: MTT cytotoxicity assay, HeLa cells, 72 h; format: cell-based; settings: Homo sapiens, 72 h treatment

T1 sequence (Q16186 whole entry): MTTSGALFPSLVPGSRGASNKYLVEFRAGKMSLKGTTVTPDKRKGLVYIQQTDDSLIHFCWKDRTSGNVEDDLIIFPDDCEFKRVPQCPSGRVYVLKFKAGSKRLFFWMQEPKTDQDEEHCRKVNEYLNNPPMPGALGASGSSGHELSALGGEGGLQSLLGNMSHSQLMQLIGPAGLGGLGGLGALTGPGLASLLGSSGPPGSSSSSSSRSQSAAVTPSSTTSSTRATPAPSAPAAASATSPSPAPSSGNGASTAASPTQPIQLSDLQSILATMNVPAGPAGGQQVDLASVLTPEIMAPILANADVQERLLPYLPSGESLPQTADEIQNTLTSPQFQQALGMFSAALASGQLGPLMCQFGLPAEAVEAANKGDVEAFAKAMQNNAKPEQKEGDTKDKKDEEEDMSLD

N#Cc1ccc(/C=C2/C(=O)/C(=C/c3ccc(C#N)cc3)C23CCNCC3)cc1 [Up284]
cytotoxicity of Up284 and doxorubicin combination ([1]; SKOV3 cells): synergy
cytotoxicity of checkerboard combinations of Up284 and cisplatin ([1]; several cell lines including PEA2 and PACS): clear evidence of synergy
thermal stabilization of RPN13 (RPN13): stabilized
% Drug Remaining, Neat Solution (Neat solution stability; 0 min): 100%
% Drug Remaining, Neat Solution (Neat solution stability; 30 min): 86%
% Drug Remaining, Neat Solution (Neat solution stability; 60 min): 78%
additional degradation in the presence of NADPH, mouse liver microsomes [2]: ~ 10%
degradation in mouse liver microsomes without NADPH [2]: ~ 50%
% Drug Remaining NADPH Neg, Mouse Liver Microsomes ([2]; 0 min): 100%
% Drug Remaining NADPH Pos, Mouse Liver Microsomes ([2]; 0 min): 100%
% Drug Remaining NADPH Neg, Mouse Liver Microsomes ([2]; 30 min): 60%
% Drug Remaining NADPH Pos, Mouse Liver Microsomes ([2]; 30 min): 45%
% Drug Remaining NADPH Neg, Mouse Liver Microsomes ([2]; 60 min): 51%
% Drug Remaining NADPH Pos, Mouse Liver Microsomes ([2]; 60 min): 38%
CHOP10 mRNA levels (CHOP10 mRNA): rapid upregulation
other blood parameters vs vehicle [3]: did not significantly change
survival vs vehicle ([4]; C57BL6, 20 mg/kg IP every third day for 4 weeks, p = 0.0004): significantly enhanced survival
ID8-luc tumor burden (bioluminescence) vs vehicle ([4]; C57BL6, 20 mg/kg IP every third day, day 15, p = 0.0001): significantly lower tumor burden
apoptosis, Up284 in combination with cisplatin (TOV21G and ES2 cells): no indication of synergy
IC50 (HeLa cells): 40 nM
